≈ marks a conversion by molar mass, not a printed value.
Test: solubility of compounds having formula (VII) in ethyl acetate
Settings: organic solvent or mixture

Compound `CCOC(=O)c1cn(-c2nc(N)c(F)cc2F)c2cc(N3CC(OC(=O)C(C)C)C3)c(F)cc2c1=O` [CH(CH3)2, ethyl 1-(6-amino-3,5-difluoropyridin-2-yl)-6-fluoro-7-(3-(isobutyryloxy)azetidin-1-yl)-4-oxo-1,4-dihydroquinoline-3-carboxylate] has a solubility of 6.4 mg/mL (≈ 12.7 mM).

Reference: patent US8927723B2, “Preparation of pyridonecarboxylic acid antibacterials” (AbbVie, Inc., priority 2004, dated 2015)
